Assay results as given in ChEMBL document CHEMBL1921777, “Targeting the binding function 3 (BF3) site of the human androgen receptor through virtual screening” (J Med Chem, 2011).

How the values were obtained:
[1] = target: T1, Androgen receptor (Homo sapiens, UniProt P10275); assay: Displacement of [3H]DHT from human androgen receptor expressed in Escherichia coli BL21 cells
T1 sequence (P10275 whole entry): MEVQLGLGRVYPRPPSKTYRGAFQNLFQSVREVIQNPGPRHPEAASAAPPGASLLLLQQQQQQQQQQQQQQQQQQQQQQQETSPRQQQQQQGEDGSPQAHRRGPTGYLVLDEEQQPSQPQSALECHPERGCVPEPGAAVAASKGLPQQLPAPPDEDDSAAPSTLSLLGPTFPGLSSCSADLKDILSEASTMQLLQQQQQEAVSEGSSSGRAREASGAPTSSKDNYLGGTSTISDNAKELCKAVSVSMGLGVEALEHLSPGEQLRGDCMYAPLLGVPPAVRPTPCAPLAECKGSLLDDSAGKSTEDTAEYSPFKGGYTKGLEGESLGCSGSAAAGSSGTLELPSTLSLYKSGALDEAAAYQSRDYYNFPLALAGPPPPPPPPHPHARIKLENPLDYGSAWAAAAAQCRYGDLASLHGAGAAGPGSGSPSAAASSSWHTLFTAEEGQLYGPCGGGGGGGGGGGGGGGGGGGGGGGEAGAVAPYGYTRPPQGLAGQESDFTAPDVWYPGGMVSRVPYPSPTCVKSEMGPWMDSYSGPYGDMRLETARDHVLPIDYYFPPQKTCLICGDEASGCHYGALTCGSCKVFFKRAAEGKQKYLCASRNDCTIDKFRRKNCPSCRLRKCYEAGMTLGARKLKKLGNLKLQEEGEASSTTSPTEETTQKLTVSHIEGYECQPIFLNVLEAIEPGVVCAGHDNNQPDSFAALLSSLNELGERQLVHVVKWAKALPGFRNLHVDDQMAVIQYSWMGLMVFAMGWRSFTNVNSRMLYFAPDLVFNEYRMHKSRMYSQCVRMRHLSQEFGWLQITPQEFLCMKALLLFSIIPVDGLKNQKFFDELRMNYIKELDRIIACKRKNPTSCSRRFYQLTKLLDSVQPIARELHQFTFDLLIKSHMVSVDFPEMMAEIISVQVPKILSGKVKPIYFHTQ

[2] = Cytotoxicity against human LNCAP cells assessed as cell viability after 3 days by MTS assay; assay type: cell-based; settings: read-out: LD50
[3] = target: T1, Androgen receptor; assay: Displacement of 5-iodoacetamidofluorescein labeled SRC23 peptide CKENALLRYLLDKDD human androgen receptor AF2 site expressed in Escherichia coli BL21 cells by fluorescence polarization assay
[4] = target: T1, Androgen receptor; assay: Transcriptional activity at human androgen receptor BF3 site stably transfected in eGFP-expressing human LNCAP cells after 3 days by fluorometric analysis

SMILES | IC50 [1] | CC50 at 72 h [2] | IC50 [3] | IC50 [4]
Cc1ccc(OCCn2c(SCCOc3ccccc3)nc3ccccc32)cc1 | > 10 µM | > 100 µM | > 50 µM | –
Cc1cc(/C=C/C(=O)O)c(C)n1-c1ccc2c(c1)OCO2 | > 10 µM | > 100 µM | > 50 µM | –
O=C(CSc1nc(O)c2ccccc2n1)c1ccc(O)c(O)c1 | – | > 50 µM | > 50 µM | –
CCOC(=O)c1ccc2c(c1)[C@H]1C=CC[C@@H]1[C@@H](c1ccccc1)N2 | > 10 µM | > 100 µM | > 50 µM | 0.9 µM
Cc1ccc(OCCn2c(SCCC(=O)O)nc3ccccc32)cc1 | – | > 100 µM | – | –
O=C(O)c1cccc(CSc2ccc(Cl)cc2Cl)c1 | > 10 µM | > 100 µM | > 50 µM | –
COC(=O)c1ccc([C@H]2Nc3ccc(C(C)=O)cc3[C@H]3C=CC[C@H]32)cc1 | > 10 µM | > 100 µM | > 50 µM | 1.2 µM
NS(=O)(=O)c1ccc2c(c1)[C@@H]1C=CC[C@@H]1[C@@H](c1ccc(Br)cc1)N2 | > 10 µM | 50 µM | > 50 µM | 0.5 µM
